Target: T1, Jagged1 (Homo sapiens, UniProt P78504)
T1 construct: gene JAG1; full-length extracellular domain (C2 to EGF16, 1277-JG-050, R&D Systems) tagged with an Fc-tag (Jagged1-Fc)
Assay: label-free microscale thermophoresis (MST)
Assay type: binding

T1 sequence (P78504 34-1067 limits assumed): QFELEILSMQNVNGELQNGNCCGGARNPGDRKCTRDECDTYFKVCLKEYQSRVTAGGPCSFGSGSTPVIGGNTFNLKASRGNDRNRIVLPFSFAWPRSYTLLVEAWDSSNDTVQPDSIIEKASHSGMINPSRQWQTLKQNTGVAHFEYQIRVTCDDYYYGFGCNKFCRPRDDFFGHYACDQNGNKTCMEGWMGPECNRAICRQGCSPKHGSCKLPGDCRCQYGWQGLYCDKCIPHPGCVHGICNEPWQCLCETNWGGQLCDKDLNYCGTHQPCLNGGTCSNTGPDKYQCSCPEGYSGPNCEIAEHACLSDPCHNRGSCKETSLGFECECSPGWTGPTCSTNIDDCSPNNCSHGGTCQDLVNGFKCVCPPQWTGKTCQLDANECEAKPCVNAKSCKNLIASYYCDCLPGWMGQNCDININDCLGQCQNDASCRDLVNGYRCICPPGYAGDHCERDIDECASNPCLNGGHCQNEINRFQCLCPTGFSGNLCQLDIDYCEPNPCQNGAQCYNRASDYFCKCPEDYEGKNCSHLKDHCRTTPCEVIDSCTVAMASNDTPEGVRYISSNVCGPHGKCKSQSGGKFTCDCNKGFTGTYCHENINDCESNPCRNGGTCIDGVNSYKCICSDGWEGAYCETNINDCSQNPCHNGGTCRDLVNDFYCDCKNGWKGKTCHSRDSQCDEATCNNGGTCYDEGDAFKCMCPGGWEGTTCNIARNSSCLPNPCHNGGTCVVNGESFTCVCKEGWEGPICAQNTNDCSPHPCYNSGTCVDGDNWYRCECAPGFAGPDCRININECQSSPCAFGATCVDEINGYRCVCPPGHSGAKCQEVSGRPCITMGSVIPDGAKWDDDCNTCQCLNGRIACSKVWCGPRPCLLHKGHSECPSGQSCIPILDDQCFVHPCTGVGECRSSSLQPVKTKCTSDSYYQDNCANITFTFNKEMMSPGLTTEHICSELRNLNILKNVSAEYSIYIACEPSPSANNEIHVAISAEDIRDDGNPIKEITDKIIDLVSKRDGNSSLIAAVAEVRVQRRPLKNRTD

[N-]=[N+]=N[C@]1(CO)O[C@@H](n2ccc(N)nc2=O)[C@@H](F)[C@@H]1O [FNC, 2′-deoxy-2′-β-fluoro-4′-azidocytidine]
Kd: 28.4 ± 6.6 µM

Reference: article PMC12154575, “Azvudine Suppresses Epithelial–Mesenchymal Transition in Hepatocellular Carcinoma by Targeting the Notch–HEY Signalling Pathway” (International Journal of Molecular Sciences, 2025)
